Series [1] can be described thus: Half life in mouse liver microsomes. It is filed as ADME, Microsome. On the technique in general: Microsomes from liver hold many membrane-bound enzymes, among them those of drug oxidation.
Series [2] can be described thus: Half life in rat liver microsomes. It is filed as ADME, Microsome.
Series [3] is described as follows: Half life in human liver microsomes. It is filed as ADME, Microsome.
A short description of series [4]: Solubility of the compound. It is filed as physicochemical.
Series [5] relates to THP-1. As to the kind of experiment: cells. The note with it: Homo sapiens.
Series [6] concerns HepG2. As to the kind of experiment: Increase in cellular triglyceride level in human HepG2 cells relative to T0901317. It is filed as functional.
In series [7] the test system is THP-1. As to the kind of experiment: Induction of ABCA1 mRNA upregulation in human THP1 cells relative to T0901317. It is filed as functional.
Series [8] relates to HepG2. Put plainly: cells. The note with it: Homo sapiens.
Series [9] can be described thus: Cmax in C57 mouse at 2.5 mg/kg, po. It is filed as ADME, organism-based. Set-up: dose 2.5 mg/kg, route oral. The note with it: in vivo.
Series [10] can be described thus: AUC (0 to last) in C57 mouse at 2.5 mg/kg, po. Set-up: time 0 - last, dose 2.5 mg/kg, route oral. It is filed as ADME, organism-based. The conditions noted are these: plasma.
Series [11] is described as follows: Tmax in C57 mouse at 2.5 mg/kg, po. It is filed as ADME, organism-based. Set-up: dose 2.5 mg/kg, route oral. The note with it: in vivo.
A short description of series [12]: Half life in C57 mouse at 10 mg/kg, po. The note with it: in vivo. It is filed as ADME, organism-based. Set-up: dose 10 mg/kg, route oral.
The nature of series [13]: Tmax in C57 mouse at 10 mg/kg, po. Set-up: dose 10 mg/kg, route oral. The conditions noted are these: in vivo. It is filed as ADME, organism-based.
Series [14] in a line: AUC (0 to last) in C57 mouse at 10 mg/kg, po. It is filed as ADME, organism-based. Set-up: dose 10 mg/kg, route oral, time 0 - last. The note with it: plasma.
Series [15] can be described thus: Cmax in C57 mouse at 10 mg/kg, po. It is filed as ADME, organism-based. Set-up: dose 10 mg/kg, route oral. The note with it: in vivo.
Series [16] relates to HepG2. Put plainly: Cytotoxic effect as decreased triglyceride level in HepG2 cells after 3 uM treatment. It is filed as cell-based. The conditions noted are these: human, hepg2, 3 µM.
Series [17] relates to HepG2. Put plainly: Cytotoxic effect as decreased triglyceride level in HepG2 cells after 10 uM treatment. The note with it: human, hepg2, 10 µM. It is filed as cell-based.
In series [18] the target is T1, Oxysterols receptor LXR-beta (Homo sapiens, UniProt P55055). The note with it: huh-7.
In series [19] the target is T1, Oxysterols receptor LXR-beta.
The target of series [20] is T2, Oxysterols receptor LXR-alpha (Homo sapiens, UniProt Q13133).
T2 sequence (Q13133 whole entry): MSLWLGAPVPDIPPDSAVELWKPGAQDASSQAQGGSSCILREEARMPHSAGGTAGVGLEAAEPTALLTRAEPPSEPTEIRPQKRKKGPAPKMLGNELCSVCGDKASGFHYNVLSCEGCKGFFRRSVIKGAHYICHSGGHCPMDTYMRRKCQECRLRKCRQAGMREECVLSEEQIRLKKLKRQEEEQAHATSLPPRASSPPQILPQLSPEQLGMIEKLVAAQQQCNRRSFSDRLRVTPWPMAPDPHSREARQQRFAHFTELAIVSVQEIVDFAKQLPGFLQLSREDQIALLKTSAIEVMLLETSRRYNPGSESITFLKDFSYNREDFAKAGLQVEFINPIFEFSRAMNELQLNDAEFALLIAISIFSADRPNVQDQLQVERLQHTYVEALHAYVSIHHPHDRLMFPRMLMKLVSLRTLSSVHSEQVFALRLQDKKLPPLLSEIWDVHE

Series [21] has as its target T2, Oxysterols receptor LXR-alpha. The note with it: huh-7.

By half-life is commonly meant the time in which the quantity being followed falls by half. One may read the solubility as the dissolved amount per volume that the medium holds. Low values mean a poorly soluble substance, high ones a readily soluble substance. Usually EC50 stands for the concentration giving half of the maximal effect. The Cmax is the highest concentration seen after dosing. A word on the AUC(0-t): it is the area under the concentration-time curve up to a stated or last time point. A low value points to less exposure. The Tmax is the time at which the peak concentration occurs. Broadly, the IC50 is the point on the concentration scale where inhibition reaches its midpoint. Higher therefore signals a need for much substance.

Each structure is given as a SMILES string. In brackets after ≈: the same amount, converted by molar mass.

T1 sequence (P55055 whole entry): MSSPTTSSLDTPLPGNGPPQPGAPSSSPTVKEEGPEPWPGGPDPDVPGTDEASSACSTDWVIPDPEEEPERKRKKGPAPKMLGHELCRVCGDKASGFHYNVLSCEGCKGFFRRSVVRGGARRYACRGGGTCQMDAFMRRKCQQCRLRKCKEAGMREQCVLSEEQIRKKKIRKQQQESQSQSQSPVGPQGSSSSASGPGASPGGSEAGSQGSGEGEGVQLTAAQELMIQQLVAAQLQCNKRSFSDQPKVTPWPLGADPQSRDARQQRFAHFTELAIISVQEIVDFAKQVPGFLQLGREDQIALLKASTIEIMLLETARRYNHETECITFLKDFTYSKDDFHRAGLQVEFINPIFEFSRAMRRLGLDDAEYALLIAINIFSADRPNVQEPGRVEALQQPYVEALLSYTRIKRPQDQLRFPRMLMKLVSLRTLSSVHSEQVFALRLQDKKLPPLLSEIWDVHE

For the molecule `CS(=O)(=O)c1cccc(Oc2cccc(-c3c(Cc4ccccc4)nc4c(C(F)(F)F)cccn34)c2)c1`, the half-life was 2 min in series [1], 7 min in [2] and 19 min in series [3]. Also, the concentration in solution in series [4] (solubility) was 3 µg/mL (≈ 5.74 µM). The EC50 is 120 nM with THP-1 [5] and 65 nM in the series with HepG2 [8]. The figures for the Efficacy in the series with HepG2 [6] and in the series on THP-1 [7] were 81% and 105%, respectively.
Regarding `CS(=O)(=O)c1cccc(Oc2cccc(-c3c(CN4CCCCC4)nc4c(C(F)(F)F)cccn34)c2)c1`, the half-life in series [1] was 2 min; in [2], 5 min; in series [3], 3 min. Moreover, in series [4], the concentration in solution (solubility) was 73 µg/mL (≈ 138 µM). The EC50 was found to be 44 nM with THP-1 [5] and 128 nM in the series on HepG2 [8]. Also, the Efficacy was determined as 26% in the series with HepG2 [6] and 100% with THP-1 [7].
As to `Cc1cnc2c(C(F)(F)F)cccc2c1-c1cccc(Oc2cccc(S(C)(=O)=O)c2)c1`, the Cmax in series [9] was 457 ng/mL. In series [4], this molecule gave a solubility below 1 µg/mL. The same molecule showed an AUC(0-t) in [10] of 1690 ng·h/mL. For the same molecule, the Tmax in series [11] is 2 h.
For `CCc1nc2c(C(F)(F)F)cccn2c1-c1cccc(Oc2cccc(S(C)(=O)=O)c2)c1`, the half-life in series [1] is 20 min; in series [2], 30 min; in [3] it was 30 min. Further, the concentration in solution in [4] (solubility) came to 228 µg/mL (≈ 495 µM). Besides, the EC50 with THP-1 [5] is 243 nM; in the series on HepG2 [8], 227 nM. Further, the Efficacy in the series on HepG2 [6] is reported as 38%; in the series with THP-1 [7], 65%.
Regarding `Cc1nc2c(C(F)(F)F)cccn2c1-c1cccc(Oc2cccc(S(C)(=O)=O)c2)c1`, the half-life in series [1] was 30 min; in series [12], 270 min; in series [2], 30 min; in series [3], 30 min. Besides, in series [13], the Tmax amounted to 0.25 h. Moreover, the solubility in [4] was above 100 µg/mL. Moreover, the 50% effective concentration (EC50) was 125 nM in the series on THP-1 [5] and 72 nM in the series with HepG2 [8]. Also, the AUC(0-t) in [14] came out at 4670 ng·h/mL. In addition, the Efficacy was 8% with HepG2 [6] and 99% in the series with THP-1 [7]. Moreover, the concentration in [15] peaked (Cmax) at 1140 ng/mL. Also, the Decreased_triglyceride entry with HepG2 [16] is given as “Cytotoxic potential”.
As to `O=S(=O)(c1ccccc1)N(CC(F)(F)F)c1ccc(C(O)(C(F)(F)F)C(F)(F)F)cc1` [T091317], the half-life in series [1], in series [2] and in series [3] was 30 min each time. In addition, the Efficacy in the series on THP-1 [7] amounted to 100%.
Turning to `CCS(=O)(=O)c1cccc(Oc2cccc(-c3c(C)nc4c(C(F)(F)F)cccn34)c2)c1`, the half-life was 30 min in series [1], 366 min in [12], 30 min in series [2] and 21 min in [3]. Moreover, the Decreased_triglyceride result in the series with HepG2 [17] and with HepG2 [16] was “Cytotoxic potential” throughout. For the same molecule, the Tmax in series [13] amounted to 1 h. The same molecule displayed a solubility in series [4] of 68 µg/mL (≈ 148 µM). Also, it took 130 nM to reach a half-maximal effect with THP-1 [5] (EC50). In series [14], the AUC(0-t) was determined as 7790 ng·h/mL. In the series with THP-1 [7], this molecule returned an Efficacy of 100%. Moreover, in [15], the maximum concentration (Cmax) amounted to 1420 ng/mL.
With `CS(=O)(=O)c1cccc(Oc2cccc(-c3c(CN4CCSC4)nc4c(C(F)(F)F)cccn34)c2)c1`, the results for the half-life in series [1], in series [2] and in series [3] were 3 min, 23 min and 6 min, respectively. In series [4], this molecule showed a solubility of 1 µg/mL (≈ 1.87 µM). Moreover, the EC50 in the series with THP-1 [5] was 10 nM; with HepG2 [8], 42 nM. Moreover, the Efficacy with HepG2 [6] was determined as 36%; in the series with THP-1 [7] it was 98%.
On to `CC(C)c1nc2c(C(F)(F)F)cccn2c1-c1ccc(-c2cccc(S(C)(=O)=O)c2)cc1`, for which the EC50 entry in series [18] is on record as “Not Active”.
For the molecule `CC(C)c1nc2c(C(F)(F)F)cccn2c1-c1ccc(-c2ccc(S(C)(=O)=O)cc2)cc1`, the IC50 in series [19] and in series [20] was above 1000 nM each time. In addition, the concentration giving a half-maximal response (EC50) result in [21] and in series [18] was “Not Active” each time.
In the case of `CC(C)c1nc2c(C(F)(F)F)cccn2c1-c1cccc(OCc2ccc(S(C)(=O)=O)cc2)c1`, the IC50 in series [19] and in series [20] was above 1000 nM each time.
Consider `Cc1nc2c(C(F)(F)F)cccc2n1-c1cccc(Oc2cccc(S(C)(=O)=O)c2)c1`, for which the Tmax in series [13] amounted to 2 h. The solubility in series [4] is 214 µg/mL (≈ 479 µM). In series [14], the AUC(0-t) was 8940 ng·h/mL. This molecule also had a Cmax in series [15] of 614 ng/mL.

(Values after ChEMBL document CHEMBL1153237, “3-(3-Aryloxyaryl)imidazo[1,2-a]pyridine sulfones as liver X receptor agonists” (Bioorg Med Chem Lett, 2010).)
